# Data: publication PMC4514850, “A Novel TGR5 Activator WB403 Promotes GLP-1 Secretion and Preserves Pancreatic β-Cells in Type 2 Diabetic Mice” (PLoS ONE, 2015)
# System: normal mice
# Assay: oral glucose tolerance test in normal mice
# Assay type: in vivo
# Details: 4 g/kg glucose, oral 50, 100 mg/kg 30 min before load
# Description: Mice were fasted overnight (14 h) before glucose tolerance tests. Normal mice received a 4 g/kg glucose challenge and for diabetic mice it’s 2 g/kg. WB403 at 50, 100 mg/kg, or sitagliptin at 100 mg/kg were administrated orally 30 min prior to glucose load (n = 10). For vehicle group, 0.5% CMC was administrated. Blood glucose levels were measured from tail bleeds with a glucometer (Roche, Accu-Chek Performa) at specified time points. Animals were treated and assessed in the order of the vehicle, WB403 50, 100 mg/kg and sitagliptin 100 mg/kg group.
# Fig 2 Effects of WB403 on glucose tolerance during OGTT in normal and diabetic mice. OGTT time course and AUC in normal mice (A, B), HFD/STZ mice (C, D) and db/db mice (E, F). Values represent mean ± SD (n = 10). *p<0.05, **p<0.01, ***p<0.001 vs. vehicle group. Asterisks in A, C and E reflect significance between WB403 100 mg/kg and vehicle group.
smiles,measurement,value
"CCc1cc(-c2nc(C)c(COCc3ccc(Br)cc3)s2)ccn1 [WB403, 4-(5-((4-bromobenzyloxy)-methyl)-4-methylthiazol-2-yl)-2-ethylpyridine]",blood glucose tolerance (OGTT) vs vehicle,significant improvement in blood glucose tolerance
